In ChEMBL document CHEMBL2074489, “Human organic anion transporter 3 (hOAT3) can operate as an exchanger and mediate secretory urate flux” (Cell Physiol Biochem, 2003):

Tests used:
[1] = target: T1, Organic anion transporter 3 (Homo sapiens, UniProt Q8TCC7); experiment: TP_TRANSPORTER: trans-stimulation in Xenopus laevis oocytes; format: functional, cell-based; conditions: oocyte
T1 sequence (Q8TCC7 whole entry): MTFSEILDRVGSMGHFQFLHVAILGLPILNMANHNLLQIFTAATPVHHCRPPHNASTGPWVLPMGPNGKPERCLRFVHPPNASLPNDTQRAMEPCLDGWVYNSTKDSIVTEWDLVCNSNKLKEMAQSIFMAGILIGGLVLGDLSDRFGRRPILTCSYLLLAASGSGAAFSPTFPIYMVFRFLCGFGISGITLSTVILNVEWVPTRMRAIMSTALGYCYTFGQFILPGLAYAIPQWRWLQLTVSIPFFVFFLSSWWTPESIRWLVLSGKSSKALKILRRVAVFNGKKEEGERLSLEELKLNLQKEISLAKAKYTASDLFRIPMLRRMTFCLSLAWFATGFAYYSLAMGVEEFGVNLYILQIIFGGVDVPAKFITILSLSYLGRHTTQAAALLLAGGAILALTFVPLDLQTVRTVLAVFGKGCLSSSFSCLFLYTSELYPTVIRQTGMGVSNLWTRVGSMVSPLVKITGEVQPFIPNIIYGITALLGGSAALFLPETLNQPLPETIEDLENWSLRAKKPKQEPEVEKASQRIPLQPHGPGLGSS

[2] = target: T1, Organic anion transporter 3; experiment: TP_TRANSPORTER: inhibition of Estrone sulfate in Xenopus laevis oocytes; format: functional, cell-based, Oocyte

Activity [1]	Ki [2]	Structure (SMILES)
substrate []		O=C(O)CCC(=O)C(=O)O [ALPHA-KETOGLUTARIC ACID]
substrate []		Nc1ccc(C(=O)NCC(=O)O)cc1 [AMINOHIPPURIC ACID]
substrate []		O=C(O)CCCC(=O)O [GLUTARATE]
substrate []	275 µM	O=c1[nH]c(=O)c2[nH]c(=O)[nH]c2[nH]1 [URIC ACID]

Structure (SMILES)	Activity [1]	Ki [2]
CN/C(=N/CCSCc1nc[nH]c1C)NC#N [CIMETIDINE]	substrate []	
